Literature values in patent US10098846B2, “Drug-containing particulate composition with cationic agent, associated medical devices, and methods for treatment” (Surmodics, Inc., priority 2016, dated 2018).

solubility in N,N-dimethylformamide (N,N-dimethylformamide): soluble
solubility in acetone (acetone): soluble
solubility in ether (ether): soluble
solubility in water (water): insoluble
Compound: CO[C@H]1C[C@@H]2CC[C@@H](C)[C@@](O)(O2)C(=O)C(=O)N2CCCC[C@H]2C(=O)O[C@H]([C@H](C)C[C@@H]2CC[C@@H](O)[C@H](OC)C2)CC(=O)[C@H](C)/C=C(\C)[C@@H](O)[C@@H](OC)C(=O)[C@H](C)C[C@H](C)/C=C/C=C/C=C/1C [Rapamycin, rapamycin]
